Assay results reported in patent US7759542B2, “Glycine N-methyltransferase (GNMT) animal model and use thereof” (priority 2007, dated 2010).
“And” between values parts separate entries of the source, which are not always exact repeats. Identical values can stand only once. “Also recorded” adds a separate entry of the source. Like-named read-outs stand apart in the source and are kept apart here.

Key:
Gnmt−/− mice = conditions: mouse, in vivo
GNMT = assay type: cell-based
wild-type mice [1] = conditions: mouse, in vivo
wild-type mice [2] = conditions: mouse, in vivo; remark: listed apart in the source
GNMT-TG mice = conditions: mouse, in vivo
HuH-7 cells = assay: MTT cytotoxicity assay of AFB1 on HuH-7 cells; assay type: cell-based
Description: MTT assay was used to determine the cytotoxicity effect of AFB1. In brief, cells were seeded on 96 well plate. At the time of assay, culture medium was replaced by 100 μL fresh medium containing 10 μL of 5 mg/mL MTT stock solution for each well. After 4 hr of labeling cells with MTT, medium was removed then 100 μL DMSO was added to each well for 10 min at 37° C. Samples were mixed and read absorbance at 540 nm. For half lethal concentration (LC50) determination, seven thousand HuH-7 cells were seeded on 96 well plate for 18 hr. Cells were treated with different concentration of AFB1 and MTT assay was performed at series time points, triplicate for each set. The survival percentage is calculated by dividing the OD value of treatment group by solvent control group. For cytotoxicity assay, five thousand HuH-7 cells were infected with different amount of adenovirus or lentivirus carrying GNMT cDNA for 8 hr then refreshed medium for another 10 hr. After 72 hr of AFB1 treatment, MTT assay was performed to determine the survival percentage.
MTT assay was used to determine the percentage of survived cells. To optimize the condition of cytotoxicity assay, HuH-7 cells were treated with different concentrations of AFB1 for series time course. […] The cytotoxicity effect of treatment up to 16 μM AFB1 was obscure within 24 hr. […]

## aflatoxin B1 [AFB1]
Gnmt−/− mice
  HE staining of histological liver sections: Dysplastic nodule, early HCC and fatty nodules; also recorded: Sclenosing HCC, Dysplastic nodule with focal fatty change
Gnmt−/− mice; ip
  Nodules <0.5 cm: 3 and 6
  Nodules >0.5 cm: 4 and 5
GNMT
  GNMT distribution following AFB1 treatment: partly translocated to cell nuclei
wild-type mice [1]
  Pathological examination of liver: dysplasia and HCC
wild-type mice [1]; ip
  ALT: 134 ± 112 and 109 ± 97
  liver/body weight %: 4.7 ± 0.3% and 4.0 ± 0.7%
wild-type mice [2]
  HE staining of histological liver sections: no abnormalities
wild-type mice [2]; ip
  ALT: 27.5 ± 0.71 U/L and 22.83 ± 3.92 U/L
  AST: 72.00 ± 58.92 U/L and 42.50 ± 8.22 U/L
  Nodules <0.5 cm: 0
  Nodules >0.5 cm: 0
GNMT-TG mice
  Pathological examination of liver: normal pattern
GNMT-TG mice; ip
  ALT: 61 ± 37 and 100 ± 73
  liver/body weight %: 4.5 ± 0.9% and 3.7 ± 0.4%
HuH-7 cells
  cytotoxicity effect: obscure
